Experimental findings from patent US7482379B2, “Propenoyl hydrazides” (priority 2004, dated 2009) are described below.

Structures are written as SMILES. Where two headings read alike, the source gives them in different places.

One assay has as its target S. mansoni legumain (Schistosoma mansoni, UniProt P09841, N192C). Kind of assay: S. mansoni legumain (SmAE) inhibition assay. Particulars: for kinact/KI: read-out: kobs/[I]. Type of assay: biochemical. How it is done:
Studies with the propenoyl hydrazides using the schistosome legumain […], (Schistosoma mansoni asparaginyl endopeptidase) were also performed. […] The actual active site enzyme concentration is unknown. The lyophilized enzyme ([…]) was reconstituted in 1.5 mL 0.5 M sodium acetate, pH 4.5 containing 4 mM DTT, and left to stand at 37° C. for 3-4 hours to allow for auto-activation of the zymogen. In a black 96-well microtiter plate, 50 μL of activated enzyme was added to an equal volume of 0.1 M citrate-phosphate buffer pH 6.8 containing 4 mM DTT. Inhibitor stock solutions (20 mM) were prepared in DMSO. Serial dilutions (using water) of inhibitor were added (as 1 μL aliquots) to yield concentrations of between 2 and 0.00002 μM inhibitor. […] After incubating various inhibitor concentrations with enzyme, 100 μL of the same buffer containing 20 μM substrate (Cbz-Ala-Ala-Asn-AMC) was added to the wells and the reaction monitored at room temperature with linear kinetics up to 20 minutes. Inhibitors are tested in duplicate. A plot of the RFU/min versus the inhibitor concentration [μM] permitted calculation of an IC50 value and estimation of the kobs/[I].

The target of the next assay is T1, Caspase-7 (Homo sapiens, UniProt P55210).
T1 sequence (P55210 24-198 limits assumed): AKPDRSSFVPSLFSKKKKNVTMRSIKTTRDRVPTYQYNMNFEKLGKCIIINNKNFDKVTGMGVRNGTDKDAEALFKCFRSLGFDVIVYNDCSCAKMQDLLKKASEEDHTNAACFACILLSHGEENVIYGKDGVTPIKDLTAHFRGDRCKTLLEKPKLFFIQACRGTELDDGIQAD
T1 sequence (P55210 207-303 limits assumed): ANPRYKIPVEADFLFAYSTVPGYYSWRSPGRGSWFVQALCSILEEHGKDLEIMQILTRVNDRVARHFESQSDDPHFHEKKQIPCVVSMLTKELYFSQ
Kind of assay: Caspase-7 progress curve inhibition assay. To be noted: second-order rate constant; Ac-DEVD-AMC substrate; Pipes buffer pH 7.2.

S. mansoni legumain, sequence (P09841 32-291 N192C): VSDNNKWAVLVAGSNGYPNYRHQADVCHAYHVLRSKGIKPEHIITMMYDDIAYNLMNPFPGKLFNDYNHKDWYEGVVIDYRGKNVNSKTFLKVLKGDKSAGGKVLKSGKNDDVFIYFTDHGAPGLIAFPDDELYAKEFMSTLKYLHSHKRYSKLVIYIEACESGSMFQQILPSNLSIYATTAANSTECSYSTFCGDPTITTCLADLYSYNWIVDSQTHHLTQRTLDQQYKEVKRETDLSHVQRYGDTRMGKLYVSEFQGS

As usually defined, the IC50 is the concentration needed to halve the response being measured. Molecule `C[C@H](NC(=O)OCc1ccccc1)C(=O)N[C@@H](C)C(=O)NN(CC(N)=O)C(=O)/C=C/C(=O)N1CCCCC1` [Cbz-Ala-Ala-AAsn-CH═CH—CO-Pip, N^2—(N-Benzyloxycarbonylalanylalanyl)-N^1-carbamoylmethyl-N^1-trans-(3-(1-piperidyloxo)propenoyl)hydrazine] returned a 50% inhibitory concentration (IC50) against S. mansoni legumain of 1000 nM.

With `C[C@H](NC(=O)OCc1ccccc1)C(=O)N[C@@H](C)C(=O)NN(CC(N)=O)C(=O)/C=C/C(=O)N(C)Cc1cccc2ccccc12` [N^2—(N-Benzyloxycarbonylalanylalanyl)-N^1-carbamoylmethyl-N^1-trans-(3-(methyl-1-naphthylmethylcarbamoyl)propenoyl)hydrazine], on S. mansoni legumain, the IC50 stood at 35 nM and the kinact/KI was determined as 16900 M⁻¹ s⁻¹.

`C[C@H](NC(=O)OCc1ccccc1)C(=O)N[C@@H](C)C(=O)NN(CC(N)=O)C(=O)/C=C/c1cccnc1` [Cbz-Ala-Ala-AAsn-CH═CH-3-Py, N^2—(N-Benzyloxycarbonylalanylalanyl)-N^1-carbamoylmethyl-N^1-trans-(3-(3-pyridyl)propenoyl)hydrazine] showed a half-inhibitory concentration (IC50) against S. mansoni legumain above 2000 nM.

Turning to `C[C@H](NC(=O)OCc1ccccc1)C(=O)N[C@@H](C)C(=O)NN(CC(N)=O)C(=O)/C=C/C(=O)N(Cc1ccccc1)c1ccccc1` [Cbz-Ala-Ala-AAsn-CH═CH—CON(Bzl)Ph, N^2—(N-Benzyloxycarbonylalanylalanyl)-N^1-carbamoylmethyl-N^1-trans-(3-phenylbenzylcarbamoylpropenoyl)hydrazine], at S. mansoni legumain, the IC50 is 70 nM.

Molecule `COc1ccc(CN(Cc2ccccc2)C(=O)/C=C/C(=O)N(CC(N)=O)NC(=O)[C@H](C)NC(=O)[C@H](C)NC(=O)OCc2ccccc2)cc1` [Cbz-Ala-Ala-AAsn-CH═CH—CON(Bzl-4-OMe)Bzl, N^2—(N-Benzyloxycarbonylalanylalanyl)-N^1-trans-(3-benzyl-(4-methoxybenzyl)carbamoyl)propenoyl-N^1-carbamoylmethylhydrazine] came in with a half-inhibitory concentration (IC50) against S. mansoni legumain of 90 nM.

`C[C@H](NC(=O)OCc1ccccc1)C(=O)N[C@@H](C)C(=O)NN(CC(N)=O)C(=O)/C=C/C(=O)N1CC=C(c2ccccc2)CC1` [Cbz-Ala-Ala-AAsn-CH═CH—CO-(4-Ph-Py), N^2—(N-Benzyloxycarbonylalanylalanyl)-N^1-carbamoylmethyl-N^1-trans-(3-(4-phenyl-5,6-dihydro-2H-pyridin-1-yloxo)propenoyl)hydrazine] registered a 50% inhibitory concentration (IC50) against S. mansoni legumain of 750 nM.

The molecule `C[C@H](NC(=O)OCc1ccccc1)C(=O)N[C@@H](C)C(=O)NN(CC(N)=O)C(=O)/C=C/C(=O)N(C)CCc1ccccc1` [Cbz-Ala-Ala-AAsn-CH═CH—CON(CH3)CH2CH2Ph, N^2—(N-Benzyloxycarbonylalanylalanyl)-N^1-carbamoylmethyl-N^1-trans-(3-(Methylphenethylcarbamoyl)propenoyl)hydrazine] registered a 50% inhibitory concentration (IC50) at S. mansoni legumain of 600 nM.

On to `C[C@H](NC(=O)OCc1ccccc1)C(=O)N[C@@H](C)C(=O)NN(CC(N)=O)C(=O)/C=C/C(=O)N(Cc1ccccc1)Cc1cccc2ccccc12` [N^2—(N-Benzyloxycarbonylalanylalanyl)-N^1-trans-(3-benzyl-1-naphthylmethylcarbamoylpropenoyl)-N^1-carbamoylmethylhydrazine], for which, at S. mansoni legumain, the half-maximal inhibitory concentration (IC50) is 62 nM and the kinact/KI turned out to be 6180 M⁻¹ s⁻¹.

`CCCCN(CCCC)C(=O)/C=C/C(=O)N(CC(N)=O)NC(=O)[C@H](C)NC(=O)[C@H](C)NC(=O)OCc1ccccc1` [Cbz-Ala-Ala-AAsn-CH═CH—CON(nBu)2, N^2—(N-Benzyloxycarbonylalanylalanyl)-N^1-carbamoylmethyl-N^1-trans-(3-dibutylcarbamoylpropenoyl)hydrazine] returned a half-inhibitory concentration (IC50) at S. mansoni legumain of 550 nM.

With `C[C@H](NC(=O)OCc1ccccc1)C(=O)N[C@@H](C)C(=O)NN(CC(N)=O)C(=O)/C=C/C(=O)N1CCCc2ccccc21` [N^2—(N-Benzyloxycarbonylalanylalanyl)-N^1-carbamoylmethyl-N^1-trans-(3-(3,4-dihydro-2H-quinolin-1-yloxo)propenoyl)hydrazine], the IC50 against S. mansoni legumain is 70 nM.

`C[C@H](NC(=O)OCc1ccccc1)C(=O)N[C@@H](C)C(=O)NN(CC(N)=O)C(=O)/C=C/C(=O)c1ccccc1` [Cbz-Ala-Ala-AAsn-CH═CH—COPh, trans-N^2—(N-Benzyloxycarbonylalanylalanyl)-N^1-carbamoyImethyl-N^1-trans-(3-benzoylpropenoyl)hydrazine]: the 50% inhibitory concentration (IC50) result at S. mansoni legumain (S. mansoni legumain, 20 min preincubation, Cbz-Ala-Ala-Asn-AMC substrate) is “does not inhibit”; against S. mansoni legumain (S. mansoni legumain, 20 min preincubation, Cbz-Ala-Ala-Asn-AMC substrate, listed as —COPh) it was above 2000 nM.

In the case of `C[C@H](NC(=O)OCc1ccccc1)C(=O)N[C@@H](C)C(=O)NN(CC(N)=O)C(=O)/C=C/C(=O)N(C)c1ccccc1` [Cbz-Ala-Ala-AAsn-CH═CH—CON(CH3)Ph, N^2—(N-Benzyloxycarbonylalanylalanyl)-N^1-carbamoylmethyl-N^1-trans-(3-(methylphenylcarbamoyl)propenoyl)hydrazine], at S. mansoni legumain, 60 nM corresponded to half-maximal inhibition (IC50).

`C[C@H](NC(=O)OCc1ccccc1)C(=O)N[C@@H](C)C(=O)NN(CC(N)=O)C(=O)/C=C/C(=O)NCc1ccc(F)cc1` [Cbz-Ala-Ala-AAsn-CH═CH—CONH-Bzl-4-F, N^2—(N-Benzyloxycarbonylalanylalanyl)-N^1-carbamoylmethyl-N^1-trans-(3-(4-fluorobenzyl)carbamoylpropenoyl)hydrazine] had an IC50 against S. mansoni legumain of 800 nM.

As for `C[C@H](NC(=O)OCc1ccccc1)C(=O)N[C@@H](C)C(=O)NN(CC(N)=O)C(=O)/C=C/C(=O)NCc1ccccc1` [Cbz-Ala-Ala-AAsn-CH═CH—CONHBzl, N^2—(N-Benzyloxycarbonylalanylalanyl)-N^1-carbamoylmethyl-N^1-trans-(3-benzylcarbamoylpropenoyl)hydrazine], the IC50 at S. mansoni legumain turned out to be 1000 nM.

`C[C@H](NC(=O)OCc1ccccc1)C(=O)N[C@@H](C)C(=O)NN(CC(N)=O)C(=O)/C=C/c1ccco1` [Cbz-Ala-Ala-AAsn-CH═CH-2-furyl, N^2—(N-Benzyloxycarbonylalanylalanyl)-N^1-carbamoylmethyl-N^1-trans-(3-(2-furyl)propenoyl)hydrazine] returned an IC50 against S. mansoni legumain above 2000 nM.

The molecule `C[C@H](NC(=O)OCc1ccccc1)C(=O)N[C@@H](C)C(=O)NN(CC(N)=O)C(=O)/C=C/C(=O)N1Cc2ccccc2C1` [Cbz-Ala-Ala-AAsn-CH═CH—CO-isoindoline, N^2—(N-Benzyloxycarbonylalanylalanyl)-N^1-carbamoylmethyl-N^1-trans-(3-(1,3-dihydroisoindol-2-yloxo)propenoyl)hydrazine] showed a 50% inhibitory concentration (IC50) against S. mansoni legumain of 300 nM.

Consider `C[C@H](NC(=O)OCc1ccccc1)C(=O)N[C@@H](C)C(=O)NN(CC(N)=O)C(=O)/C=C/C(=O)N(Cc1ccccc1)Cc1ccc(F)cc1` [Cbz-Ala-Ala-AAsn-CH═CH—CON(Bzl-4-F)Bzl, N^2—(N-Benzyloxycarbonylalanylalanyl)-N^1-trans-(3-benzyl(4-fluorobenzyl)carbamoylpropenoyl)-N^1-carbamoylmethylhydrazine], for which the IC50 at S. mansoni legumain came to 60 nM.

`C[C@H](NC(=O)OCc1ccccc1)C(=O)N[C@@H](C)C(=O)NN(CC(N)=O)C(=O)/C=C/C(=O)N(Cc1ccco1)Cc1ccco1` [Cbz-Ala-Ala-AAsn-CH═CH—CON(CH2-2-furyl)2, N^2—(N-Benzyloxycarbonylalanylalanyl)-N^1-carbamoylmethyl-N^1-trans-(3-bis-(2-furylmethyl)carbamoylpropenoyl)hydrazine] came in with a half-inhibitory concentration (IC50) against S. mansoni legumain of 900 nM.

Molecule `C[C@H](NC(=O)OCc1ccccc1)C(=O)N[C@@H](C)C(=O)NN(CC(N)=O)C(=O)/C=C/C(=O)Nc1ccccc1` [Cbz-Ala-Ala-AAsn-CH═CH—CONHPh, N^2—(N-Benzyloxycarbonylalanylalanyl)-N^1-carbamoylmethyl-N^1-trans-(3-phenylcarbamoylpropenoyl)hydrazine] showed an IC50 against S. mansoni legumain of 700 nM.

As to `C[C@H](NC(=O)OCc1ccccc1)C(=O)N[C@@H](C)C(=O)NN(CC(N)=O)C(=O)/C=C/C(=O)N1CCCc2ccccc21` (relative stereo) [N^2—(N-Benzyloxycarbonylalanylalanyl)-N^1-carbamoylmethyl-N^1-trans-(3-(3,4-dihydro-2H-quinolin-1-yloxo)propenoyl)hydrazine], at S. mansoni legumain (S. mansoni legumain, 20 min preincubation, Cbz-Ala-Ala-Asn-AMC substrate, read-out: IC50), the IC50 turned out to be 200 nM.

As for `CC(NC(=O)OCc1ccccc1)C(=O)NC(C)C(=O)NN(CC(N)=O)C(=O)C=CC(=O)N(C)C(Cc1ccccc1)C(=O)N(C)CCc1ccccc1` (stereo not drawn) [N^2—(N-Benzyloxycarbonylalanylalanyl)-N^1-carbamoylmethyl-N^1-trans-(3-methyl-(1-methylphenethylcarbamoyl)phenylethylcarbamoylpropenoyl)hydrazine], the midpoint of inhibition on S. mansoni legumain, the IC50, lay at 750 nM.

Regarding `C/C=C/C=C/C(=O)N(CC(=O)O)NC(=O)[C@@H](NC(=O)OCc1ccccc1)C(C)C` (stereo in doubt) [Cbz-Val-AAsp-CH═CH—CH═CH—CH3, N^2—(N-Benzyloxyearbonylvalyl)-N^1-carboxymethyl-N^1-trans-(hexa-2,4-dienoyl)hydrazine], the “k2 Caspase-7” value on Caspase-7 stood at 56 M⁻¹ s⁻¹.
